Experimental data reported in article PMC11855827, “High-Throughput Screening of Five Compound Libraries for Anthelmintic Activity and Toxicity Leads to the Discovery of Two Flavonoid Compounds” (International Journal of Molecular Sciences, 2025).
“And” between values parts separate entries of the source, which are not always exact repeats. Identical values can stand only once.

System: C. elegans
Conditions: Table S2, C. elegans SS assay, 110 μM, averages of 4 data points

Structure (SMILES) | Percentage of motility inhibition 0 h | Percentage of motility inhibition 24 h
NC(N)=O [Urea] | 10% | 13%
CC(=O)O[C@H]1CC[C@]2(C)[C@H]3CC=C4[C@@H]5[C@@H](C)[C@H](C)CC[C@]5(C(=O)O)CC[C@@]4(C)[C@]3(C)CC[C@H]2C1(C)C [Ursolic acid acetate] | 24% | 18%
C/C=C1\C[C@@H](C)[C@](O)(CO)C(=O)OCC2=CC[N+]3([O-])CC[C@@H](OC1=O)[C@@H]23 (stereo partly drawn) [Usaramine N‐oxide] | 22% and 12% | 
C/C=C1\C[C@@H](C)[C@](O)(CO)C(=O)OCC2=CCN3CC[C@@H](OC1=O)[C@@H]23 [Usaramine] | 31% | 21%
O=c1cc(-c2ccc(O[C@@H]3O[C@H](CO)[C@@H](O)[C@H](O)[C@H]3O)cc2)oc2cc(O)c([C@@H]3O[C@H](CO)[C@@H](O)[C@H](O)[C@H]3O[C@@H]3OC[C@H](O)[C@H](O)[C@H]3O)c(O)c12 [Vaccarin] | 0% | 6%
CC(C)[C@H](N)C(=O)OCCOCn1cnc2c(=O)nc(N)[nH]c21.Cl [Valacyclovir (hydrochloride)] | 38% | 9%
C=C(C)[C@@H]1CCC2=CCC[C@@H](C)[C@]2(C)C1 [Valencene] | 3% | 4%
CC(C)[C@H](N)C(=O)OCC(CO)OCn1cnc2c(=O)nc(N)[nH]c21.Cl (stereo partly drawn) [Valganciclovir (hydrochloride)] | 9% | 0%
COC(=O)CC(NC(=O)[C@@H](NC(=O)OC(C)C)C(C)C)c1ccc(Cl)cc1 (stereo partly drawn) [Valifenalate] | 26% | 3%
C=C[C@]1(C)C[C@@H](OC(=O)CSC(C)(C)CNC(=O)[C@H](N)C(C)C)[C@]2(C)[C@H](C)CC[C@]3(CCC(=O)[C@H]32)[C@@H](C)[C@@H]1O.Cl [Valnemulin (Hydrochloride)] | 29% | 12%
CN[C@H](CC(C)C)C(=O)N[C@H]1C(=O)N[C@@H](CC(N)=O)C(=O)N[C@H]2C(=O)N[C@H]3C(=O)N[C@H](C(=O)N[C@H](C(=O)O)c4cc(O)cc(O)c4-c4cc3ccc4O)[C@H](O)c3ccc(c(Cl)c3)Oc3cc2cc(c3O[C@@H]2O[C@H](CO)[C@@H](O)[C@H](O)[C@H]2O[C@H]2C[C@](C)(N)[C@H](O)[C@H](C)O2)Oc2ccc(cc2Cl)[C@H]1O.Cl [Vancomycin (hydrochloride)] | 15% | 0%
Cl.O[C@H]1CCN2Cc3ccccc3N=C12 [Vasicine (hydrochloride)] | 0% | 2%
O=c1c2ccccc2nc2n1CC[C@@H]2O [Vasicinone] | 0% | 0%
COC(=O)C1=CO[C@@H](O[C@@H]2O[C@H](CO)[C@@H](O)[C@H](O)[C@H]2O)[C@H]2[C@@H]1C(=O)C[C@@H]2C [Verbenalin] | 60% | 44%
O=c1cc(-c2ccc(O)cc2)oc2c([C@@H]3O[C@H](CO)[C@@H](O)[C@H](O)[C@H]3O)c(O)c([C@@H]3O[C@H](CO)[C@@H](O)[C@H](O)[C@H]3O)c(O)c12 [Vicenin 2] | 0% | 3%
O=c1cc(-c2ccc(O)cc2)oc2c([C@@H]3OC[C@@H](O)[C@H](O)[C@H]3O)c(O)c([C@@H]3O[C@H](CO)[C@@H](O)[C@H](O)[C@H]3O)c(O)c12 [Vicenin 3] | 15% | 3%
CC[C@]1(O)C[C@@H]2CN(CCc3c([nH]c4ccccc34)[C@@](C(=O)OC)(c3cc4c(cc3OC)N(C)[C@H]3[C@@](O)(C(=O)OC)[C@H](OC(C)=O)[C@]5(CC)C=CCN6CC[C@]43[C@@H]65)C2)C1.O=S(=O)(O)O [Vinblastine (sulfate)] | 0% and 8% | 0% and 1%
CC[C@]1(O)C[C@H]2CN(CCc3c([nH]c4ccccc34)[C@@](C(=O)OC)(c3cc4c(cc3OC)N(C=O)[C@H]3[C@@](O)(C(=O)OC)[C@H](OC(C)=O)[C@]5(CC)C=CCN6CC[C@]43[C@@H]65)C2)C1.O=S(=O)(O)O [Vincristine (sulfate)] | 0% | 0% and 7%
CCC1=C[C@@H]2CN(C1)Cc1c([nH]c3ccccc13)[C@@](C(=O)OC)(c1cc3c(cc1OC)N(C)[C@H]1[C@@](O)(C(=O)OC)[C@H](OC(C)=O)[C@]4(CC)C=CCN5CC[C@]31[C@@H]54)C2.O=C(O)C(O)C(O)C(=O)O.O=C(O)C(O)C(O)C(=O)O [Vinorelbine (ditartrate)] | 0% | 
C[C@@H]1O[C@@H](c2c(O)c([C@@H]3O[C@H](CO)[C@@H](O)[C@H](O)[C@H]3O)c(O)c3c(=O)cc(-c4ccc(O)cc4)oc23)[C@H](O)[C@H](O)[C@H]1O [Violanthin] | 0% | 19%
O=c1[nH]c2ccccc2c(-c2cccc(O)c2)c1O [Viridicatol] | 0% | 0%
C[C@@H]1O[C@@H](O[C@@H]2[C@@H](O)[C@H](O)[C@@H](CO)O[C@H]2c2c(O)cc(O)c3c(=O)cc(-c4ccc(O)cc4)oc23)[C@H](O)[C@H](O)[C@H]1O [Vitexin‐2"‐O‐rhamnoside] | 2% | 52%

Structure (SMILES) | Percentage of motility inhibition 0 h | Percentage of motility inhibition 24 h
CC1(C)[C@@H](O)CC[C@]2(C)[C@H]3CC=C4[C@@H]5C[C@@]6(C)C[C@H](OC6=O)[C@]5(C)CC[C@@]4(C)[C@]3(C)CC[C@@H]12 [Wilforlide A] | 7% | 3%
COc1c(O[C@@H]2O[C@H](C(=O)O)[C@@H](O)[C@H](O)[C@H]2O)cc(O)c2c(=O)cc(-c3ccccc3)oc12 [Wogonoside] | 6% | 2%
Cc1ccc(NC(=O)C(=O)NC2CC(C)(C)NC(C)(C)C2)cc1 [YYA‐021] | 44% | 39%
O.O=C(O)[C@@H]1[C@H]2C[C@H]3c4[nH]c5ccccc5c4CCN3C[C@@H]2CC[C@@H]1O [Yohimbic acid (hydrate)] | 16% | 0%
COC(=O)[C@@H]1[C@H]2C[C@H]3c4[nH]c5ccccc5c4CCN3C[C@@H]2CC[C@@H]1O.Cl [Yohimbine (Hydrochloride)] | 24% | 0%
C[C@H]1CC[C@@H]2N(C1)C[C@H]1[C@@H]3C[C@H]4[C@@H](CC(=O)[C@H]5C[C@H](O)CC[C@@]54C)[C@@H]3CC[C@H]1[C@]2(C)O [Yubeinine] | 13% | 0%
C[C@@H]1CC[C@@]2(OC1)O[C@H]1C[C@H]3[C@@H]4CC=C5C[C@@H](O[C@@H]6O[C@H](CO)[C@@H](O[C@@H]7O[C@H](CO)[C@@H](O)[C@H](O[C@@H]8O[C@H](CO)[C@@H](O)[C@H](O)[C@H]8O)[C@H]7O)[C@H](O)[C@H]6O[C@@H]6O[C@@H](C)[C@H](O)[C@@H](O)[C@H]6O)CC[C@]5(C)[C@H]4CC[C@]3(C)[C@H]1[C@@H]2C [Zingiberen Newsaponin] | 0% | 60%
C[C@@H]1CC[C@]2(C(=O)O)CC[C@]3(C)C(=CC[C@@H]4[C@@]5(C)CC[C@H](O[C@@H]6OC[C@H](O)[C@H](O)[C@H]6O)C(C)(C)[C@@H]5CC[C@]43C)[C@@H]2[C@]1(C)O [Ziyuglycoside II] | 11% | 14%
C[C@@H]1CC[C@]2(C(=O)O[C@@H]3O[C@H](CO)[C@@H](O)[C@H](O)[C@H]3O)CC[C@]3(C)C(=CC[C@@H]4[C@@]5(C)CC[C@H](O[C@@H]6OC[C@H](O)[C@H](O)[C@H]6O)C(C)(C)[C@@H]5CC[C@]43C)[C@@H]2[C@]1(C)O [Ziyuglycoside I] | 0% | 6%
C=C/C(C)=C/C=C/C(C)=C/C=C1/C(C)=CCCC1(C)C [all-trans-Anhydro Retinol] | 61% | 58%
C/C=C/c1cc(OC)c(OC)cc1OC [alpha-Asarone] | 49% | 29%
CC(C)=CCC[C@](C)(O)[C@@H]1CC=C(C)CC1 [alpha-Bisabolol] | 1% | 6%
CC1(C)CC[C@]2(C)CC[C@]3(C)C(=CC[C@@H]4[C@@]5(C)CC[C@@H](O)[C@](C)(C(=O)O)[C@@H]5CC[C@]43C)[C@@H]2C1 [alpha-Boswellic acid] | 34% | 28%
COc1cc2oc3cc(O)c(OC)c(CC=C(C)C)c3c(=O)c2c(O)c1CC=C(C)C [beta‐Mangostin] | 30% | 0%
C=C(C)[C@H]1C=C[C@@](C)(O)CC1 [cis-Isolimonenol] | 2% | 30%
CC/C=C\CC1=C(C)CCC1=O [cis‐Jasmone] | 10% | 9%
S=C=Nc1ccc(N=C=S)cc1 [p‐Phenylene diisothiocyanate] | 2% | 9%
CNCC(O)c1ccc(O)cc1 (stereo not drawn) [p‐Synephrine] | 13% | 0%
C/C(=C\CNc1ncnc2c1ncn2[C@@H]1O[C@H](CO)[C@@H](O)[C@H]1O)CO [trans‐Zeatinriboside] | 9% | 0%
C/C1=C\CC/C(C)=C/CC(C)(C)/C=C/C1 [α-Humulene] | 11% | 55%
Cc1c(C)c2c(c(C)c1O)CC[C@@](C)(CCC[C@H](C)CCC[C@H](C)CCCC(C)C)O2 [α-Vitamin E] | 53% | 11%
